Data on one compound can be found in patent publication US11986528B2, “Use of a mixture of lauroyl macrogolglyceride and polyethylene glycol as an excipient” (GATTEFOSSE SAS, priority 2020, dated 2024).

≈ marks a conversion by molar mass, not a printed value.

The conditions of data set [1]: water at 25° C.; cited from earlier work.
Data set [2] can be described thus: dissolution (liberation) of terfenadine from capsules, FIG. 4. It counts as physicochemical. Particulars: after 120 minutes; dose 60 mg. The procedure: Another active principle, terfenadine, was formulated with Gelucire® 44/14. The mixture was cast into a capsule in a manner that was similar to that of Example 1 above which used piroxicam.
The dose was 60 mg, for a total of 680 mg of formulation.
The graph of FIG. 4 was therefore obtained, illustrating the liberation L (%) of the active principle as a function of time t in minutes, in which: • the curve C1 (invention) corresponds to a mixture of terfenadine/Gelucire® 44/14/PEG 6000, in which the ratio by weight of Gelucire® 44/14/PEG 6000 is 65/35: • the curve C2 (invention) corresponds to a mixture of terfenadine/Gelucire® 44/14/PEG 6000, in which the ratio by weight of Gelucire® 44/14/PEG 6000 is 60/40; • the curve C3 (control 1) corresponds to a mixture of terfenadine/PEG 6000; • the curve C4 (control 2) corresponds to terfenadine alone.

As for `CC(C)(C)c1ccc(C(O)CCCN2CCC(C(O)(c3ccccc3)c3ccccc3)CC2)cc1` (centres unmarked) [terfenadine], the solubility in water in data set [1] is reported as 250 mg/L (≈ 530 µM). Further, in data set [2], the “liberation L of terfenadine” value is “below 10%”.
